Earlier results as cited in patent publication US6399089B1, “Compositions and methods for regulating metabolism and balancing body weight” (priority 2000, dated 2002).
Like-named read-outs stand apart in the source and are kept apart here.

Key:
[1] = rats
[2] = 200 mcg, after 26 weeks, obese patients, very low calorie diet

CC(=O)Oc1ccccc1C(=O)O [aspirin]
thermogenic response of ephedrine during a meal (lean women): not lean women
thermogenic response of ephedrine during a meal (obese women): potentiated

CN[C@@H](C)[C@H](O)c1ccccc1 [ephedrine]
increase in energy expenditure [1]: 9%
reduction of body fat [1]: 50%
reduction of body weight [1]: 18%

chromium picolinate
lean body mass [2]: increased lean body mass
